For one data set, the target named is T1, talin R8 domain (Mus musculus, UniProt P26039).
T1 construct: conducted using 0.1 mM [^15N]talin R8 domain; hexa-histidine tag followed by TEV protease cleavage site (N, cleaved yes); made in house; host or cells: E. coli BL21 STAR (DE3)
The experiment in a line: 1H,15N-HSQC NMR titration of talin R8 with peptides. Type of data set: binding.

Data set [1] in a line: Solubility of peptides and protein fragments. The data set is classed as physicochemical.

Like-named read-outs stand apart in the source and are kept apart here. Ends that are not written are not given here.

T1 sequence (P26039 1461-1580 limits assumed): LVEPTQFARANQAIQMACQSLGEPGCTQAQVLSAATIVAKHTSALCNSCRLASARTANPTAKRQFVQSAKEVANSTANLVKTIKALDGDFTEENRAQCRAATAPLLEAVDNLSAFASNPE
Method for talin R8 domain: NMR spectra were collected on Bruker Avance III 600- and 800-MHz spectrometers equipped with CryoProbes. Experiments were performed at 298 K in 20 mM sodium phosphate (pH 6.5) and 50 mM NaCl with 5% (v/v) ^2H2O. Dissociation constants were evaluated from the ^1H,^15N-HSQC chemical-shift changes in the titration experiments conducted using 0.1 mM [^15N]talin R8 domain. Peptides were added from 5- to 10-mM stock solutions to generate titration points at peptide/protein ratios 0.1, 0.2, 0.5, 0.75, 1, 2, 4, and 8.
NMR Spectroscopy - Spectra were processed with TopSpin (Bruker) and analysed using CCPN Analysis (Vranken et al., 2005). […] The changes in chemical shift of 15N-talin R8 domain were calculated from 1H,15N-HSQC spectra as Δδ=√(ΔδH2+(ΔδN*0.15)2). The cross-peaks corresponding to the bound state were assigned by following chemical shift changes throughout the R8 titration with the increasing amount of peptides.
Dissociation constants were evaluated from the 1H,15N-HSQC chemical shift changes in the titration experiments conducted using 0.1 mM 15N-talin R8 domain. Peptides were added from 5-10 mM stock solutions to generate titration points at 0.1, 0.2, 0.5, 0.75, 1, 2, 4 and 8 peptide:protein ratios.
Concentrations of the DLC1 and RIAM peptides were determined from UV absorbance at 280 nm. […]
Concentration of the R8 domain that lacks UV-active aromatic residues was estimated from the comparison with the spectra of the R3 domain that has similar molecular weight and shape using the calibration procedure described in (Wider and Dreier, 2006). Dissociation constants were determined by fitting the chemical shift changes to the equation:
( ) ( ) [𝑃] + [𝐿] + 𝐾𝑑 − √([𝑃] + [𝐿] + 𝐾𝑑)2 − 4[𝑃][𝐿] where ∆(𝐻, 𝑁)0 is the weighted chemical shift difference at saturation, [P] and [L] are protein and ligand concentrations, respectively. Data were fitted independently for the well-resolved peaks and the average Kd was calculated from 3 different peaks with the lowest standard deviations of the fits. […]

With “ENEDIFPELDDILYHVKGMQRIVNQWSEK [DLC1(461–489)]”, the Kd on talin R8 domain (read-out: KD determined by fitting chemical-shift changes) came to 48 µM.

Take “DLC1(467–489): synthetic DLC1 peptide, residues 467–489; shorter fragment used for crystallization”: in the data set with talin R8 domain (1H,15N-HSQC, talin R8, 298 K, pH 6.5, 4-fold excess of peptide (DLC1(467–489), paxillin LD1) or titration), the “chemical-shift changes / broadening of talin R8 on peptide addition” value is “large chemical-shift changes”. Moreover, the solubility entry in data set [1] is recorded as “less soluble than the longer fragment”.

For MDDLDALLADLESTTS [paxillin LD1], at talin R8 domain, the Kd turned out to be 168 µM.

Source of the values: article PMC4938799, “LD Motif Recognition by Talin: Structure of the Talin-DLC1 Complex” (Structure(London, England:1993), 2016).
